The text below walks through data of paper PMC11784839, “Monoaminergic neurotransmitters are bimodal effectors of tau aggregation” (Science Advances, 2025).

Structures are written as SMILES.

This experiment concerns the target tau (Homo sapiens, UniProt P10636). In words: MCE Phenols Library screening, tau biosensor cell seeding assay (AvZ). The format is cell-based. Conditions: for AvZ (average z score of seeding, SDs from the mean level of seeding): 10 μM phenol in cell cultures, AD brain homogenate preincubated 16 hours, two biological replicates, positive = catalyzes seeding, negative = inhibits; for Z repl 1 / Z Repl 2: Z score; for Z repl 1 / raw data 1: replicate 1; for Z Repl 2 / raw data 2: replicate 2; for av Z: average Z score of the two replicates.

Setting [1] is: average puncta of the two replicates.
[2] abbreviates: tau biosensor seeding, MCE Phenols Library screen.

Chain of tau (P10636 623-695 limits assumed): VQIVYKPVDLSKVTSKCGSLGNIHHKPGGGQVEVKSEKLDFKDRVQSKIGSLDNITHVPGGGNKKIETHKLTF

Regarding `COC(=O)Cc1ccc(O)cc1` [Methyl 4-hydroxyphenylacetate], the “AvZ (average z score of seeding, SDs from the mean level of seeding)” value (“AvZ” below) was -0.61; the “Z repl 1” value is given as -0.457; the “Z Repl 2” value is -0.762. The compound further displayed an av puncta under setting [1] of 12741.3. Besides, for the setting “puncta”, the “raw data 1” value turned out to be 20857.9 and the “raw data 2” value worked out at 4624.75.

On to `COC(=O)c1ccccc1O` [Methyl Salicylate], for which the “AvZ” value is reported as -0.502; the “Z repl 1” value is recorded as -0.127; the “Z Repl 2” value was -0.877. The av puncta under setting [1] came to 14109.8. Where the note is “puncta”, the “raw data 1” value is reported as 24825.4 and the “raw data 2” value is given as 3394.27.

In the case of `COC(=O)/C=C/c1ccc(O)c(O)c1` [Methyl caffeate], the “AvZ” value is on record as -0.349; the “Z repl 1” value is listed as -0.415; the “Z Repl 2” value was -0.284. Further, under setting [1], the av puncta is listed as 15550.1. Besides, where the note is “raw puncta”, the “raw data 1” value is reported as 21362.3 and the “raw data 2” value amounted to 9737.92.

`COC(=O)c1cc(O)c(O)c(O)c1` [Methyl gallate]: the “AvZ” value is -1.311; the “Z repl 1” value is -1.727; the “Z Repl 2” value is -0.895. The compound also registered an av puncta (average of raw data 1 and 2) of 4412. Moreover, for the setting “puncta”, the “raw data 1” value was found to be 5612.12 and the “raw data 2” value was 3211.88.

As for `COC(=O)[C@@H](Cc1ccc(O)c(O)c1)OC(=O)/C=C/c1ccc(O)c(O)c1` [Methyl rosmarinate], the “Z repl 1” value is -0.241 and the “Z Repl 2” value is on record as -0.521. The “av Z” value (MCE Phenols Library screen) is given as -0.381. Besides, the av puncta under setting [1] was 15329.6. Where the note is “raw puncta”, the “raw data 1” value came out at 23459.6 and the “raw data 2” value amounted to 7199.56.

`COc1ccc2c(c1OC)O[C@H]1c3ccc(O)cc3OC[C@@H]21` [Methylnissolin]: the “Z repl 1” value is given as -0.257 and the “Z Repl 2” value was -1.004. Moreover, the “av Z” value (MCE Phenols Library screen) was -0.63. Under setting [1], this compound displayed an av puncta of 12658.4. Where the note is “puncta”, the “raw data 1” value stood at 23269.5 and the “raw data 2” value amounted to 2047.37.

For the compound `O=C(O)[C@H]1O[C@@H](Oc2c(-c3ccc(O)c(O)c3)oc3cc(O)cc(O)c3c2=O)[C@H](O)[C@@H](O)[C@@H]1O` [Miquelianin], the “Z repl 1” value was 1.087 and the “Z Repl 2” value was determined as 0.729. Under setting [2], the “av Z” value worked out at 0.908. This compound also had an av puncta (average of raw data 1 and 2) of 29978.8. Where the note is “puncta”, the “raw data 1” value is recorded as 39402.1 and the “raw data 2” value came to 20555.6.

As for `COC(=O)c1c2c(c3ccccc3c1O)OC(C)(C)C=C2` [Mollugin], the “Z repl 1” value is recorded as 0.972 and the “Z Repl 2” value amounted to 0.582. Also, the “av Z” value under setting [2] was 0.777. For the setting “average of raw data 1 and 2”, this compound gave an av puncta of 28499.6. Further, where the note is “puncta”, the “raw data 1” value stood at 38015.5 and the “raw data 2” value turned out to be 18983.8.

For the compound `Oc1cc(O)cc(-c2cc3ccc(O)cc3o2)c1` [Moracin M], the “Z repl 1” value turned out to be 0.06 and the “Z Repl 2” value is given as -0.745. In addition, the “av Z” value (MCE Phenols Library screen) is listed as -0.343. The same compound gave an av puncta under setting [1] of 15938.9. Where the note is “raw puncta”, the “raw data 1” value stood at 27063.9 and the “raw data 2” value amounted to 4813.92.

`CC(C)=CCc1c2c(c(O)c3c1O[C@]14C(=C[C@@H]5C[C@H]1C(C)(C)O[C@@]4(C/C=C(/C)C(=O)O)C5=O)C3=O)C=CC(C)(C)O2` [Morellic acid]: the “Z repl 1” value is -0.656 and the “Z Repl 2” value was -0.586. Further, the “av Z” value (MCE Phenols Library screen) was -0.621. This compound also yielded an av puncta under setting [1] of 12492.8. Besides, under “puncta”, the “raw data 1” value came to 18474.5 and the “raw data 2” value was 6511.03.

In the case of `O=c1c(O)c(-c2ccc(O)cc2O)oc2cc(O)cc(O)c12` [Morin], the “Z repl 1” value is on record as -1.702 and the “Z Repl 2” value is -1.085. Besides, where the note is “MCE Phenols Library screen”, the “av Z” value is reported as -1.394. The compound further had an av puncta (average of raw data 1 and 2) of 3543.97. Besides, under “puncta”, the “raw data 1” value is 5911.71 and the “raw data 2” value was determined as 1176.23.

For the compound `CC(C)=CCc1c(-c2ccc(O)cc2O)oc2c3c(cc(O)c2c1=O)OC(C)(C)C=C3` [Morusin], the “Z repl 1” value is given as -0.601 and the “Z Repl 2” value is given as -0.306. Also, the “av Z” value (MCE Phenols Library screen) is -0.454. Further, the av puncta under setting [1] is reported as 14314.5. Also, where the note is “raw puncta”, the “raw data 1” value came out at 19129.3 and the “raw data 2” value is 9499.74.

Consider `COc1cc2oc(-c3ccccc3)cc(=O)c2c(O)c1OC` [Mosloflavone], for which the “Z repl 1” value turned out to be 0.192 and the “Z Repl 2” value was determined as 0.208. Moreover, the “av Z” value (tau seeding) was 0.2. Also, the av puncta (average of raw data 1 and 2) is 21820.5. For the same compound, where the note is “puncta”, the “raw data 1” value came to 28649.1 and the “raw data 2” value is given as 14991.8.

For the compound `OC[C@H]1O[C@@H](Oc2cc(O)cc(/C=C/c3ccc(O[C@@H]4O[C@H](CO)[C@@H](O)[C@H](O)[C@H]4O)cc3O)c2)[C@H](O)[C@@H](O)[C@@H]1O` [Mulberroside A], the “Z repl 1” value is -0.183 and the “Z Repl 2” value is -0.34. The “av Z” value (MCE Phenols Library screen) was -0.262. Moreover, the av puncta under setting [1] is listed as 16641.5. Moreover, for the setting “raw puncta”, the “raw data 1” value is reported as 24150.5 and the “raw data 2” value was 9132.57.

Consider `C=CCc1cc(OC)c(O[C@@H](C)[C@H](O)c2ccc(O)c(OC)c2)c(OC)c1` [Myrislignan], for which the “Z repl 1” value is reported as 1.234 and the “Z Repl 2” value worked out at 0.299. Besides, the “av Z” value under setting [2] was 0.766. For the same compound, where the note is “average of raw data 1 and 2”, the av puncta came out at 28560.9. Further, under “puncta”, the “raw data 1” value is 41167.3 and the “raw data 2” value is recorded as 15954.5.

Regarding `NCC(c1ccc(O)cc1)C1(O)CCCCC1` (stereo not drawn) [N,N,O-Tridesmethylvenlafaxine], the “AvZ” value came to 0.955; the “Z repl 1” value is recorded as 0.959; the “Z Repl 2” value is listed as 0.951. Where the note is “average of raw data 1 and 2”, this compound displayed an av puncta of 30393. For the setting “puncta”, the “raw data 1” value turned out to be 37867.4 and the “raw data 2” value came to 22918.7.

Turning to `O=C(/C=C/c1ccc(O)cc1)NCCc1c[nH]c2ccc(O)cc12` [N-(p-Coumaroyl) Serotonin], the “AvZ” value was -0.185; the “Z repl 1” value came out at 0.332; the “Z Repl 2” value is listed as -0.702. Under “average of raw data 1 and 2”, this compound registered an av puncta of 17799.1. For the same compound, where the note is “puncta”, the “raw data 1” value turned out to be 30331 and the “raw data 2” value is on record as 5267.16.

In the case of `CC(=O)NCCc1c[nH]c2ccc(O)cc12` [N-Acetyl-5-hydroxytryptamine], the “AvZ” value is reported as -0.235; the “Z repl 1” value is given as 0.285; the “Z Repl 2” value is given as -0.756. The compound also came in with an av puncta under setting [1] of 17233.8. Also, for the setting “raw puncta”, the “raw data 1” value was determined as 29776.2 and the “raw data 2” value is 4691.42.

Regarding `CC(=O)N[C@@H](Cc1ccc(O)cc1)C(=O)O` [N-Acetyl-L-tyrosine], the “AvZ” value is -0.474; the “Z repl 1” value was -0.073; the “Z Repl 2” value was -0.875. Also, the av puncta under setting [1] amounted to 14449.6. Further, for the setting “puncta”, the “raw data 1” value is reported as 25475.6 and the “raw data 2” value worked out at 3423.63.

Take `O=C1C=CC(=O)c2c(O)ccc(O)c21` [Naphthazarin]: the “Z repl 1” value is listed as -0.196 and the “Z Repl 2” value was -0.791. Where the note is “MCE Phenols Library screen”, the “av Z” value is -0.494. Under setting [1], this compound yielded an av puncta of 14154.5. Further, for the setting “puncta”, the “raw data 1” value is 23991 and the “raw data 2” value is 4318.06.

`O=C1N[C@@H]2C(=C[C@H](O)[C@@H](O)[C@H]2O)c2cc3c(c(O)c21)OCO3` [Narciclasine]: the “Z repl 1” value is -2.127 and the “Z Repl 2” value is given as -0.234. Further, the “av Z” value (MCE Phenols Library screen) is -1.181. The compound further returned an av puncta (average of raw data 1 and 2) of 5540.49. Where the note is “puncta”, the “raw data 1” value came to 817.989 and the “raw data 2” value was determined as 10263.

`COc1cc(-c2oc3cc(O)cc(O)c3c(=O)c2O[C@@H]2O[C@H](CO[C@@H]3O[C@@H](C)[C@H](O)[C@@H](O)[C@H]3O)[C@@H](O)[C@H](O)[C@H]2O)ccc1O` [Narcissin]: the “Z repl 1” value was 0.249 and the “Z Repl 2” value is recorded as -0.653. For the setting “MCE Phenols Library screen”, the “av Z” value was -0.202. Besides, the av puncta under setting [1] came to 17563.5. In addition, where the note is “raw puncta”, the “raw data 1” value came to 29338.6 and the “raw data 2” value is recorded as 5788.5.

In the case of `O=C(/C=C/c1ccc(O)cc1)c1c(O)cc(O)cc1O` [Naringenin chalcone], the “Z repl 1” value is -1.271 and the “Z Repl 2” value is given as -0.404. The “av Z” value (MCE Phenols Library screen) was -0.838. This compound came in with an av puncta (average of raw data 1 and 2) of 9770.58. Besides, where the note is “puncta”, the “raw data 1” value was 11089.3 and the “raw data 2” value came out at 8451.87.

Consider `COc1cc2oc(-c3ccccc3)cc(=O)c2c(O)c1O` [Negletein], for which the “Z repl 1” value is recorded as -1.009 and the “Z Repl 2” value is on record as -0.535. Also, the “av Z” value (MCE Phenols Library screen) was -0.772. In addition, the av puncta (average of raw data 1 and 2) is listed as 10644.7. For the same compound, for the setting “puncta”, the “raw data 1” value is on record as 14234.4 and the “raw data 2” value was determined as 7055.07.

As to `CC(C)=CCc1cc(-c2coc3cc(O)ccc3c2=O)ccc1O` [Neobavaisoflavone], the “Z repl 1” value is reported as 0.415 and the “Z Repl 2” value is -0.147. Moreover, under “tau seeding”, the “av Z” value amounted to 0.134. The compound also came in with an av puncta (average of raw data 1 and 2) of 21263.5. Under “puncta”, the “raw data 1” value is listed as 31334.3 and the “raw data 2” value is 11192.7.

Regarding `O=C(/C=C/c1ccc(O)c(O)c1)O[C@@H]1C[C@@](O)(C(=O)O)C[C@@H](O)[C@@H]1O` [Neochlorogenic acid], the “Z repl 1” value was -0.752 and the “Z Repl 2” value was -0.408. Also, where the note is “MCE Phenols Library screen”, the “av Z” value is reported as -0.58. This compound registered an av puncta under setting [1] of 12870.1. Also, under “puncta”, the “raw data 1” value came out at 17326.7 and the “raw data 2” value is recorded as 8413.44.
